“Also recorded” adds a separate entry of the source.
Assays:
patients with NASH [1] = conditions: two years, 13-15 mg/kg/day; cited from earlier work
patients with NASH [2] = conditions: 15 mg/kg/day; cited from earlier work
[3] = cited from earlier work
[4] = test system: patients with histologically proven NASH; test: Multicenter randomized double-blind placebo-controlled clinical study of 28-35 mg/kg/day UDCA for treating NASH; format: in vivo, human; conditions: for Normalization ALAT: percent pts with normalized ALAT at 12 months; for Normalization ASAT: percent pts with normalized ASAT at 12 months
Procedure: A multicenter randomized double-blind placebo-controlled study was conducted to examine the efficacy and tolerability of 28-35 mg/kg/day UDCA in patients with histologically proven NASH, ALAT and/or ASAT greater than 50 IU/L. A total of 120 patients were planned to receive either UDCA or placebo for a period of 12 months. Treatment was administered with meals. During the study, liver biochemistry, tolerability and side effects were monitored regularly. During the study, overweight and obese patients were encouraged to lose weight by following a hypocaloric diet and to maintain a certain level of physical activity. Drug treatments taken by patients for associated medical conditions were allowed. At the end of the 12th month, patients underwent an end of study evaluation and study treatments were stopped.
Inclusion criteria: age of patients higher than 18 years; liver biopsy compatible with NASH: presence of steatosis >20% associated with hepatocyte ballooning and/or hepatic lobule necrosis during the last 18 months; ALAT or ASAT levels >50 IU/L at the screening visit (with at least 3 elevated transaminase levels in the last 12 months)
Exclusion criteria: hepatic biopsy done before the last 18 months; no more than one normal value of transaminases during the last 12 months; patient was treated by UDCA during the last 12 months; loss of weight of more than 15% between the time of the hepatic biopsy and the screening; alcohol consumption higher than 20 g/day for women or higher than 30 g/day for men; presence of other causes of hepatitis such as chronic hepatitis B or C, increased serum ferritin associated with homozygosity for the C282Y mutation, primary biliary cirrhosis, primary sclerosing cholangitis, well documented autoimmune hepatitis (specific autoantibody, hpergammaglobulinaemia, histology-compatible), alpha-1 anti-trypsin deficiency, Wilson's disease, HIV infection; secondary causes of NASH: long term amiodarone-induced NASH, corticotherapy, obesity surgery within the last 2 years, Tamoxifen® treatment; Child's B or Child's C grade cirrhosis; presence of liver carcinoma; currently treated or treated during the past three years of hepatic biopsy with rosilitazone or pioglitazone; treatment with vitamin E during the past six months before screening; pregnant or breastfeeding women; unavailable histology slides for reading by the central laboratory.
Discontinuation criteria: Subjects were free to discontinue the study at any time for any or for no reason, and without prejudice to further treatment. Patients who withdrew subsequent to the pre-study evaluations but before receiving any study medication were not considered dropouts and were not included in the database. Patients who were included in the study and received at least one dose of study medication were included in the database and considered part of the safety population. Patients who were included in the study and received a dose of study medication and for whom at least one post-baseline evaluation was available were analyzed as part of the Intent-to-Treat (ITT) population. Patients from the ITT population who completed the study without any major protocol violations were analyzed as part of the Per Protocol (PP) population.
Main Endpoints: The primary endpoint was percent change in ALAT at 12 months vs. baseline. The secondary endpoints included: percent change in ASAT at 12 months vs. baseline; percent change Gamma-GT at 12 months vs. baseline; percent pts with normalized ALAT at 12 months; percent pts with normalized ASAT at 12 months; change in fibrosis index (FibroTest); change in inflammation index (Actitest); change in metabolic syndrome markers; and safety.
FibroTest is a non-invasive blood test that provides a quantitative estimate of liver fibrosis and can be used to predict advanced fibrosis. ActiTest is a non-invasive blood test that is used to assess the activity of liver disease by measuring the degree of necrosis and inflammation. […]

adult patients with PSC = conditions: cited from earlier work
NASH patients = conditions: one year, 13-15 mg/kg/day; cited from earlier work
[5] = 28-35 mg/kg/day UDCA in NASH patients
[6] = mean change at 12 months vs. baseline, ITT, 30 mg/kg/day
[7] = by the end of the study, n=76, 28-30 mg/kg/day

## C[C@H](CCC(=O)O)[C@H]1CC[C@H]2[C@@H]3[C@@H](O)C[C@@H]4C[C@H](O)CC[C@]4(C)[C@H]3CC[C@]12C [UDCA, 3α, 7β-dihydroxy-5β-cholan-24-oic acid]
Patients with NASH [1]
  Efficacy, UDCA treatment group versus placebo group: did not show any differences
Patients with NASH [2]
  ALAT and Gamma-GT levels: significant reduction
  Steatosis, necroinflammation, or fibrosis: no improvements
[3]; chloroform
  Solubility in chloroform: slightly soluble
[3]; ethanol
  Solubility in ethanol: freely soluble
[3]; ether
  Solubility in ether: sparingly soluble
[3]; glacial acetic acid
  Solubility in glacial acetic acid: freely soluble
[3]; intestinal fluids, compared with water
  Solubility in intestinal fluids: more soluble
[3]; water
  Solubility in water: virtually insoluble; also recorded: practically insoluble
[4]; [5]
  Asthenia and RUQP: symptomatic improvement
  Safety: without any significant safety concerns
[4]; ITT, at 6 months
  ActiTest (effect on liver inflammation) change vs. baseline, Mean: −31.41%
  FibroTest (effect on fibrosis) change vs. baseline, Mean: −9.15%
[4]; ITT, at 12 months
  ActiTest (effect on liver inflammation) change vs. baseline, Mean: −30.97%
  FibroTest (effect on fibrosis) change vs. baseline, Mean: −8.11%
[4]; PP, at 6 months
  ActiTest (effect on liver inflammation) change vs. baseline, Mean: −31.23%
  FibroTest (effect on fibrosis) change vs. baseline, Mean: −9.68%
[4]; PP, at 12 months
  ActiTest (effect on liver inflammation) change vs. baseline, Mean: −27.33%
  FibroTest (effect on fibrosis) change vs. baseline, Mean: −5.40%
[4]; UDCA treatment group vs placebo group
  GI symptoms (diarrhea, abdominal pain, motility problems) frequency versus placebo group: −3 ×
[4]; UDCA treatment group, increased in placebo group (p=0.023)
  Glycemia: remained stable
[4]; at 6 and 12 months (p<0.05)
  HbA1c versus placebo: lower
[4]; at 12 months (p=0.038)
  Insulinemia versus placebo: lower
[4]; both ITT and PP populations
  Fibrosis levels compared to placebo group: significant improvement
  Liver inflammation levels compared to placebo group: significant improvement
[4]; human, in vivo
  Mild diarrhea, abdominal pain, and gastrointestinal motility disorders versus placebo group: more
  Time of maximum effect, percent change from baseline ALAT: 3 months
  Time of maximum effect, percent change from baseline ASAT: 3 months
  Time of maximum effect, percent change from baseline in Gamma-GT: 6 months
[4]; [6]
  Δ % ALAT (SD): −28±55%
  Δ % ASAT (SD): −8±59%
  Δ % Gamma-GT (SD): −51±28%
[4]; percent of patients
  Individual effect on fibrosis: Fibrosis Decreased: 35.7%
  Individual effect on fibrosis: Fibrosis Increased: 8.9%
  Individual effect on fibrosis: Fibrosis Stable: 55.4%
[4]; ITT
  Normalization ALAT: 25%
  Normalization ASAT: 32%
[4]; PPP
  Normalization ALAT: 29%
  Normalization ASAT: 36%
Adult patients with PSC; adjusted for baseline stratification characteristics (p=0.011)
  Risk of a primary endpoint versus placebo: 2.2 times
Adult patients with PSC; [7]
  Patients who had reached one of the pre-established clinical endpoints (number): 28 patients
  Patients who had reached one of the pre-established clinical endpoints (percent): 37%
Adult patients with PSC; during therapy (p<0.01)
  Amount of decrease of ASAT and AP levels versus placebo: greater
Adult patients with PSC; versus placebo (p=0.029)
  Adjusted relative risk for death or transplantation: 3.3
Adult patients with PSC; vs. 43% placebo, p=0.03
  Serious adverse events: 61%
NASH patients
  Fibrosis or inflammation: did not change
  Liver enzyme and steatosis levels: improved

— patent publication US20120071451A1, “METHOD OF TREATING NONALCOHOLIC STEATOHEPATITIS WITH ELEVATED DOSES OF URSODEOXYCHOLIC ACID” (Aptalis Pharma Canada Inc., priority 2009, published 2012)
